Measurements as given in patent publication US8946286B2, “Organic amine salts of aminobenzoic acid derivatives and method for producing same” (Nissan Chemical Industries, Ltd., priority 2010, dated 2015).

Key:
[1] = Photostability test; assay type: physicochemical; conditions: 25° C./60% RH, vessel left open, light of 200 W·hr·m^2 for 57 hours
Method: (§1) In the following Assay Examples 2 to 4, the stability of the ethanolamine salt (1), tromethamine salt (2), choline salt (3) and potassium salt (4) of 3-{[((2E)-2-{1-[5-(4-t-butylphenyl)-4-hydroxy-3-thienyl]ethylidene}hydrazino)carbonothioyl]amino}benzoic acid to temperature, humidity and light was evaluated, by related substance increase (%), weight change (%) or TG loss change (%) through appropriate selection.
(§2) Related substance increase (%)
(§3) Each sample was analyzed by high performance liquid chromatography before and after treatment, and the sum of area percentages for analogues in each sample were calculated. • Column: L-column ODS (Chemicals Evaluation and Research Institute, Japan inner diameter 4.6 mm, length 250 mm) • Detector: UV absorptiometer (wavelength; […]) • Column temperature: 40° C. • Flow rate: 1.0 mL/min • Injection volume: 10 μL • Mobile phase: (a) 0.01 M ammonium formate buffer (pH 3.0) • (b) acetonitrile Measurements were carried out with a gradient between the above (a) and (b) solutions.
(§4) Each sample was weighed before and after treatment, and weight gain was calculated in percentages from the difference in weight. The magnitude of weight change during treatment is an indication of stability of a compound. TG loss change (%);
(§5) About 5 mg of each sample was weighed out before and after treatment and put in an aluminum pan, and TG measurements were performed with the pan left open. The rate of TG loss of each sample was calculated in percentages (%). The measuring conditions are shown below.
(§6) Measuring Conditions; • Instrument:TG8120 (Rigaku Corporation) • Measuring range: room temperature to 105° C. • Heating rate: 5° C./min • Atmosphere: air 50 mL/min
(§7) An increase in TG loss from the initial value indicates possibility of moisture absorption and degradation of a compound. Therefore, the magnitude of change in TG loss is an indication of stability of a compound.
The photostability of the ethanolamine salt (1), tromethamine salt (2), choline salt (3) and potassium salt (4) of 3-{[((2E)-2-{1-[5-(4-t-butylphenyl)-4-hydroxy-3-thienyl]ethylidene}hydrazino)carbonothioyl]amino}benzoic acid was evaluated as follows.
About 1 g of each sample was put in a transparent glass vessel at 25° C./60% RH (relative humidity) with the vessel left open and irradiated with light of 200 W·hr·m^2 for 57 hours. […], the sample was withdrawn, and the related substance increase (%), weight change (%) and TG loss change (%) were evaluated.

[2] = Hygrostability test; assay type: physicochemical; conditions: 25° C./90% RH for 2 weeks, vessel left open
Method: as §1, §2, §3, §4, §5, §6, §7
The hygrostability of the ethanolamine salt (1), tromethamine salt (2), choline salt (3) and potassium salt (4) of 3-{[((2E)-2-{1-[5-(4-t-butylphenyl)-4-hydroxy-3-thienyl]ethylidene}hydrazino)carbonothioyl]amino}benzoic acid was evaluated as follows.
About 1 g of each sample was put in a transparent glass vessel and maintained at 25° C./90% RH (relative humidity) for 2 weeks with the vessel left open. After 2 weeks, the sample was withdrawn, and the related substance increase (%), weight change (%) and TG loss change (%) were evaluated.

[3] = Initial values of TG loss and related substances before treatment; assay type: physicochemical; conditions: initial value before treatment; for Related substances (%): HPLC, sum of area percentages for analogues; for TG loss (%): TG room temperature to 105° C.
Method: as §2, §3, §5, §6

[4] = Thermal stability test; assay type: physicochemical; conditions: 60° C. for 2 weeks without humidity control, brown glass vessel
Method: as §1, §2, §3
The thermal stability of the ethanolamine salt (1), tromethamine salt (2), choline salt (3) and potassium salt (4) of 3-{[((2E)-2-{1-[5-(4-t-butylphenyl)-4-hydroxy-3-thienyl]ethylidene}hydrazino)carbonothioyl]amino}benzoic acid was evaluated as follows.
Each sample was put in a brown glass vessel, and the vessel was left at 60° C. for 2 weeks without humidity control. After 2 weeks, the sample was withdrawn, and the related substance increase (%) was evaluated.

[5] = Oral absorption test on dogs; assay type: in vivo; conditions: beagle dogs, oral capsule, 360 mg/dog; ratio to Compound A (free form)
Method: Oral Absorption Test on Dogs
The free form (Compound A), potassium salt, organic amine salts (ethanolamine salt and tromethamine salt) and salt of quaternary ammonium ion (choline salt) of 3-{[((2E)-2-{1-[5-(4-t-butylphenyl)-4-hydroxy-3-thienyl]ethylidene}hydrazino)carbonothioyl]amino}benzoic acid in capsule were orally administered to beagle dogs at a dose of 360 mg/dog. 0.5, 1, 2, 4, 6, 8 and 24 hours after the administration, blood was collected to obtain plasma samples. Their concentrations in dog plasma were measured by LC/MS/MS. Using the plasma concentrations obtained, maximum plasma concentration (Cmax), time to maximum plasma concentration (Tmax) and area under the plasma concentration-time curve were calculated.
In FIG. 1, * represents Compound A (Free Acid), ♦ represents the potassium salt (Potassium Salt), □ represents the choline salt (Choline Salt), ▴ represents ethanolamine (Ethanolamine Salt), and ◯ represents the tromethamine salt (Tromethamine Salt).

SMILES	Related substance increase [1] [%]	TG loss change [1] [%]	Weight change [1] [%]	Related substance increase [2] [%]	TG loss change [2] [%]	Weight change [2] [%]	Related substances (%) [3] [%]	TG loss (%) [3] [%]	Related substance increase [4] [%]	area under the plasma concentration-time curve (AUC), times better than Compound A [5] [times]	maximum plasma concentration (Cmax), times better than Compound A [5] [times]
C/C(=N\NC(=S)Nc1cccc(C(=O)O)c1)c1csc(-c2ccc(C(C)(C)C)cc2)c1O.NCCO [(1), Ethanolamine salt of 3-{[((2E)-2-{1-[5-(4-t-butylphenyl)-4-hydroxy-3-thienyl]ethylidene}hydrazino)carbonothioyl]amino}benzoic acid]	−0.01	−0.25	0.23	0.04	−0.26	0.29	0.34	0.64	0.16	–	–
C/C(=N\NC(=S)Nc1cccc(C(=O)O)c1)c1csc(-c2ccc(C(C)(C)C)cc2)c1O.NC(CO)(CO)CO [(2), Tromethamine salt of 3-{[((2E)-2-{1-[5-(4-t-butylphenyl)-4-hydroxy-3-thienyl]ethylidene}hydrazino)carbonothioyl]amino}benzoic acid]	0.01	−0.13	0.01	−0.03	−0.13	0.00	0.07	0.11	−0.01	–	–
C/C(=N\NC(=S)Nc1cccc(C(=O)[O-])c1)c1csc(-c2ccc(C(C)(C)C)cc2)c1O.C[N+](C)(C)CCO [(3), Choline salt of 3-{[((2E)-2-{1-[5-(4-t-butylphenyl)-4-hydroxy-3-thienyl]ethylidene}hydrazino)carbonothioyl]amino}benzoic acid]	0.00	0.58	0.17	−0.01	0.66	0.10	0.34	1.19	−0.01	–	–
C/C(=N\NC(=S)Nc1cccc(C(=O)[O-])c1)c1csc(-c2ccc(C(C)(C)C)cc2)c1O.[K+] [(4), Potassium 3-{[((2E)-2-{1-[5-(4-t-butylphenyl)-4-hydroxy-3-thienyl]ethylidene}hydrazine)carbonothioyl]amino}benzoate, reference compound]	0.27	3.16	9.36	0.39	7.86	23.22	1.86	3.18	2.46	6.3	7.2
